# Measured values as given in patent publication US7109244B2, “Compositions and methods comprising long-chain, straight-chain 2-amino-3-hydroxyalkanes” (priority 1997, dated 2006).
# Where two headings read alike, the source gives them in different places.
# Assays:
# [1] = system: Chinese hamster ovary (CHO) cells; settings: cited from earlier work
# HL-60 cells = settings: cells treated with phorbol 12-myristate-13-acetate; cited from earlier work
# protein kinase C = settings: competing with diacylglycerol for the binding site; cited from earlier work
# [2] = system: L1210 murine lymphocytic leukemia cells; assay: L1210 morphological change (pointed cells); assay type: cell-based; settings: for % Pointed Cells 1st: 27 h
# Method: Referring to FIG. 1, in the L1210 assay some of the cells changed from being spherical (FIG. 1A) to ovoid with long points approximately […] apart (FIG. 1B). Several other forms have also been observed in assays of these extracts, including cells with points not […] apart (FIG. 1C), cells with more than two points (FIG. 1D), cells with a bulge (FIG. 1E) and cells with a bulge replacing one of the points (FIG. 1F). However, the form with two sharp, opposing points was by far the predominant and characteristic one observed. This type of morphological change had not previously been observed during the screening of over 1000 marine extracts.
# As discussed above, the spisulosines caused a distinct morphological change in L1210 leukemia cells, in addition to cytotoxicity. This bioactivity, which was recorded as the percentage of living cells in which altered morphology was observed, could be observed sometimes as early as 13 h after the start of the assay and reached a maximum at 50–60 h, after which it decreased. […] The morphological effect was usually measured 30–35 h after the start of the assay and again about 24 h later, while the cytotoxicity was determined when the number of cells in the controls reached approximately 8000, usually in 3 days after the assay was begun. It should be noted that the pointed cells were live cells and that they were counted as such for the cytotoxicity reading. Also, assays in which 100% cytotoxicity was recorded may still have contained live cells (<0.5%) which may or may not have been pointed. All morphologically-changed cells were counted in the pointed cell percentage.
# Morphologically-changed cells (FIGS. 1A–1F) were counted as living cells when determining the percent inhibition of growth. Morphological changes were assessed throughout the assay period. The percentage of pointed cells was determined by counting the number of altered cells in approximately 60 living cells. This percentage varied with the length of time the assay had been running. It generally reached its maximum about 50 hours after the start of the assay, but pointed cells could be observed as early as 13 hours after the start of the assay and could usually still be seen when the percent growth inhibition was measured. The percentages of pointed cells were often counted both after about 35 and after 55 hours. The time that this measurement was made is indicated with the data.
# [3] = system: L1210 murine lymphocytic leukemia cells; assay: L1210 cytotoxicity assay (inhibition of growth); assay type: cell-based
# Method: The morphological effect was usually measured 30–35 h after the start of the assay and again about 24 h later, while the cytotoxicity was determined when the number of cells in the controls reached approximately 8000, usually in 3 days after the assay was begun. It should be noted that the pointed cells were live cells and that they were counted as such for the cytotoxicity reading. […] All morphologically-changed cells were counted in the pointed cell percentage.
# Cytotoxicity assays against L1210 murine lymphocytic leukemia cells were performed by dissolving the samples in methanol and/or hexane were applied to the dry assay wells and the solvent was allowed to evaporate. Cells (1000) were added in minimum essential medium (MEM, 1 ml) and incubated 37° C. Inhibition of growth was recorded as the estimated percentage of living cells in sample wells versus that in control wells.
# [4] = system: Nippostrongylus brasiliensis; settings: cited from earlier work
# [5] = system: Gram-positive and Gram-negative bacteria and fungi; settings: cited from earlier work
# Vero cells = assay: effect of LPA on the action of spisulosine 285 in Vero cells (Example D); assay type: cell-based
# Excerpt: LPA is known to increase the level of stress fibers in cells by activation of the Rho protein. The effect of LPA on cells treated with spisulosine 285, and untreated cells was examined. […]
compound,measurement,setting,value
"CCCCCCCCCCCCC/C=C/[C@@H](O)[C@@H](N)CO (relative stereo) [sphingosine, D-trans-erythro-sphingosine, reference compound]",cytotoxicity,[1],cytotoxic
same,differentiation of HL-60 cells,HL-60 cells,inhibit the differentiation
same,inhibition of protein kinase C,protein kinase C,potent inhibitor
same,L1210 morphological alteration / pointed cell activity (in words),[2],no morphological effect
same,% Pointed cells,[2]; 0.1 μg/ml,0%
same,% Pointed cells,[2]; 0.5 μg/ml,0%
same,% Pointed cells,[2]; 1 μg/ml,0%
same,% Pointed cells,[2]; 5 μg/ml,0%
same,L1210 cytotoxicity (in words),[3],moderate cytotoxicity
same,% Inhibition,[3]; 0.1 μg/ml,0%
same,% Inhibition,[3]; 0.5 μg/ml,31%
same,% Inhibition,[3]; 1 μg/ml,75%
same,% Inhibition,[3]; 5 μg/ml,100%
"CCCCCCCCCCCCCCCCCCN [Compound 131, stearylamine, reference compound]",cytotoxicity,[1],cytotoxic
same,L1210 morphological alteration / pointed cell activity (in words),[2],no morphological effect
same,% Pointed cells,[2]; 0.1 μg/ml,0%
same,% Pointed cells,[2]; 0.5 μg/ml,0%
same,% Pointed cells,[2]; 1 μg/ml,0%
same,% Pointed cells,[2]; 5 μg/ml,0%
same,L1210 cytotoxicity (in words),[3],moderate cytotoxicity
same,inhibition at 0.1 µg/mL,"[3]; Mus musculus, L1210, 0.1 μg/ml, read-out: % Inhibition",0%
same,inhibition at […],"[3]; Mus musculus, L1210, 0.25 μg/ml, read-out: % Inhibition",0%
same,inhibition at 0.5 µg/mL,"[3]; Mus musculus, L1210, 0.5 μg/ml, read-out: % Inhibition",0%
same,inhibition at 1 µg/mL,"[3]; Mus musculus, L1210, 1 μg/ml, read-out: % Inhibition",19%
same,inhibition at […],"[3]; Mus musculus, L1210, 2.5 μg/ml, read-out: % Inhibition",96%
same,inhibition at 5 µg/mL,"[3]; Mus musculus, L1210, 5 μg/ml, read-out: % Inhibition",99%
"CCCCCCCCCCCCCCC[C@H](O)[C@H](C)N [Compound 154, (2S,3S)-2-amino-3-octadecanol]",% Pointed Cells 1st,[2]; 0.1 μg/ml,0%
same,% Pointed Cells 1st,[2]; 0.5 μg/ml,0%
same,% Pointed Cells 1st,[2]; 1 μg/ml,0%
same,% Pointed Cells 1st,[2]; 5 μg/ml,0%
same,inhibition at 0.1 µg/mL,"[3]; Mus musculus, L1210, 0.1 μg/ml, read-out: % Inhibitiion",0%
same,inhibition at […],"[3]; Mus musculus, L1210, 0.25 μg/ml, read-out: % Inhibitiion",0%
same,inhibition at 0.5 µg/mL,"[3]; Mus musculus, L1210, 0.5 μg/ml, read-out: % Inhibitiion",0%
same,inhibition at 1 µg/mL,"[3]; Mus musculus, L1210, 1 μg/ml, read-out: % Inhibitiion",63%
same,inhibition at […],"[3]; Mus musculus, L1210, 2.5 μg/ml, read-out: % Inhibitiion",100%
same,inhibition at 5 µg/mL,"[3]; Mus musculus, L1210, 5 μg/ml, read-out: % Inhibitiion",100%
"CCCCCCCCCCCCC/C=C/[C@@H](O)[C@@H](N)COP(=O)(O)OCC[N+](C)(C)C [Compound 163, reference compound]",% Pointed cells,[2]; 10 μg/ml,0%
same,% Pointed cells,[2]; 25 μg/ml,0%
same,% Pointed cells,[2]; 50 μg/ml,0%
same,inhibition at 10 µg/mL,"[3]; Mus musculus, L1210, 10 μg/ml",38%
same,inhibition at 25 µg/mL,"[3]; Mus musculus, L1210, 25 μg/ml",50%
same,inhibition at 50 µg/mL,"[3]; Mus musculus, L1210, 50 μg/ml",88%
"CCCCCCCCCCCCCCC[C@@H](O)[C@@H](N)CO [Compound 164, dihydrosphingosine]",cytotoxicity,[1],did not affect the cytotoxicity
C=CCCCCCCCCCC(O)C(C)N (centres unmarked) [Xestaminol A],antihelminthic activity,[4],antihelminthic activity
same,activity against bacteria and fungi,[5],weak activity
Lysophosphatidic acid [LPA],effect of LPA added prior to spisulosine on morphology,"Vero cells; 10 mM LPA 2 hours, then 0.5 mM spisulosine 285 for 18 hours",prevents the morphological change promoted by spisulosine
same,level of actin,"Vero cells; 10 mM LPA, 2 hours",increasing the level of actin
